From patent US20080039481A1, “Seed Dressing for Soya Bean” (BAYER CROPSCIENCE AG, priority 2004, published 2008)

Columns and labels:
Phakopsora Pachyrhizi [1] = assay: Seed dressing field trial, action of fluquinconazole against soya bean rust; type: in vivo; details: natural infection (control 75%)
Procedure: Action of Fluquinconazole against Phakopsora Pachyrhizi Seed Dressing: Fluquinconazole 25 WPC (Wettable Powder) For dressing, the seed was shaken for 1 minute with the seed dressing in a closed plastic bag. The seed was sown in a field (4 plots, plot size in each case 10 m^2, 40 seeds per m^2) and, one day after sowing, artificially irrigated. The natural degree of infection in the control was, on average, 75%. The efficacy is expressed in percent. 0% means an efficacy which corresponds with that of the control, whereas an efficacy of 100% means that no infection is observed.

Phakopsora Pachyrhizi [2] = assay: Seed dressing field trial, action of prothioconazole against soya bean rust; type: in vivo; details: duration 28 days, natural infection (control 75%)
Procedure: Action of Prothioconazole against Phakopsora Pachyrhizi
Seed Dressing: Prothioconazole
For dressing, the seed was shaken for 1 minute with the seed dressing in a closed plastic bag.
The seed was sown in a field (4 plots, plot size in each case 10 m^2, 40 seeds per m^2) and, one day after sowing, artificially irrigated.
The natural degree of infection in the control was, on average, 75%.
The efficacy is expressed in percent. 0% means an efficacy which corresponds with that of the control, whereas an efficacy of 100% means that no infection is observed.

Measured: Efficacy

O=c1c2cc(F)ccc2nc(-n2cncn2)n1-c1ccc(Cl)cc1Cl [fluquinconazole]
100%: Phakopsora Pachyrhizi [1]; 5 g of fluquinconazole/100 kg of seed, duration 28 days | Phakopsora Pachyrhizi [1]; 50 g of fluquinconazole/100 kg of seed, duration 22 days | Phakopsora Pachyrhizi [1]; 50 g of fluquinconazole/100 kg of seed, duration 33 days | Phakopsora Pachyrhizi [1]; 50 g of fluquinconazole/100 kg of seed, duration 37 days

OC(Cc1ccccc1Cl)(Cn1nc[nH]c1=S)C1(Cl)CC1 (stereo not drawn) [prothioconazole]
100%: Phakopsora Pachyrhizi [2]; 5 g of prothioconazole/100 kg of seed | Phakopsora Pachyrhizi [2]; 10 g of prothioconazole/100 kg of seed
